This note sets out measurements from the supplement of paper PMC12076712.

Assay in all cases: pIC50, kinobeads binding competition
Test [1] has as its target UniProt Q9H093. As to conditions: cell material: Lysate mix. In a few lines: (§1)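 To obtain pIC50, fold changes versus vehicle were fitted to logistic dose-response curves (R drc package) across biological duplicates. Protein binding to Kinobeads was quantified by TMT10 LC-MS/MS of digested bead-bound proteins. Treatments used nine concentrations with a top of 30 μM, applied to live Jurkat cells in 1:4 steps for 60 min at 37 °C before lysis, or to Jurkat lysate or a 1:1:1:1 HEK293/K-562/HepG2/placenta lysate mix in 1:5 steps for 60 min at 4 °C.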

The target of test [2] is MAST1 (UniProt Q9Y2H9). The conditions noted are these: cell material: Jurkat lysate. In a few lines:
as §1

In test [3] the target is PAK1 (UniProt Q13153). As to conditions: cell material: Jurkat cells. In a few lines: as §1
The target of test [4] is T1, CAMK4 (UniProt Q16566).
T1 sequence (whole entry): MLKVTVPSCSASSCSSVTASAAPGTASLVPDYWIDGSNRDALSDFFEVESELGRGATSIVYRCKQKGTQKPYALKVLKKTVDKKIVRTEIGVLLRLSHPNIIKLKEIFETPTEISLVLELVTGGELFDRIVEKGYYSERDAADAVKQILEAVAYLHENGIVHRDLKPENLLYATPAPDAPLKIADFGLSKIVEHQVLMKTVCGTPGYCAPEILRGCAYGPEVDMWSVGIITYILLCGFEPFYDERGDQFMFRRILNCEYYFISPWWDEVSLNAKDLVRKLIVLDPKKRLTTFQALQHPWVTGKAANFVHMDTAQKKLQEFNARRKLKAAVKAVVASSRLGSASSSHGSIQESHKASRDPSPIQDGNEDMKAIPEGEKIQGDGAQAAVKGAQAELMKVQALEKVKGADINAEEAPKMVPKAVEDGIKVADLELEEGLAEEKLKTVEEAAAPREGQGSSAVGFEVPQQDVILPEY
In outline:
as §1

In test [5] the target is RIPK3 (UniProt Q9Y572). In outline: as §1
Test [6] has as its target T2, PRKG2 (UniProt Q13237).
T2 sequence (whole entry): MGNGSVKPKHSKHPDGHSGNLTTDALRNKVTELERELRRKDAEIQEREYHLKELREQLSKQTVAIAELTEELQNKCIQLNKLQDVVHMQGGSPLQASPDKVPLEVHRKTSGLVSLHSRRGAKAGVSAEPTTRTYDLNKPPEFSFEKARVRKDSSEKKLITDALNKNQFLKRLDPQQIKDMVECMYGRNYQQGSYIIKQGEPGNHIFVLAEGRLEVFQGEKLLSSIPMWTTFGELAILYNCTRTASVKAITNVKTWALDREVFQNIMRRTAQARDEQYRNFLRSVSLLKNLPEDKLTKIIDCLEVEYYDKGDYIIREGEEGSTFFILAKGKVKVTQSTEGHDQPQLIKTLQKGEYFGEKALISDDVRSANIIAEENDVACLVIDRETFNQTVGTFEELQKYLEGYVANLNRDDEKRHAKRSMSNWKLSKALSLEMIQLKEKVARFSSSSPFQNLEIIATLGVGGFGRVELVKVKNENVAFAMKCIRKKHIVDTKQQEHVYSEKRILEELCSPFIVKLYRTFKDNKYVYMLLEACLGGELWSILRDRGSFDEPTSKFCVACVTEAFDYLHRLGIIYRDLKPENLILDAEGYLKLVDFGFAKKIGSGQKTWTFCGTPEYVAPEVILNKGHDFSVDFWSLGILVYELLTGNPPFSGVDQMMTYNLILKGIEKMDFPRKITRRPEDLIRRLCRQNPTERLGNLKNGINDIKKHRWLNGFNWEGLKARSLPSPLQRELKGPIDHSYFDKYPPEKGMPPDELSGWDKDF
The conditions noted are these: cell material: Jurkat lysate. In outline:
as §1

Test [7] has as its target SRPK2 (UniProt P78362). In a few lines:
as §1

Test [8] concerns the target AKT1 (UniProt P31749). In outline:
as §1

Test [9] concerns the target T3, ZAP70 (UniProt P43403).
T3 sequence (whole entry): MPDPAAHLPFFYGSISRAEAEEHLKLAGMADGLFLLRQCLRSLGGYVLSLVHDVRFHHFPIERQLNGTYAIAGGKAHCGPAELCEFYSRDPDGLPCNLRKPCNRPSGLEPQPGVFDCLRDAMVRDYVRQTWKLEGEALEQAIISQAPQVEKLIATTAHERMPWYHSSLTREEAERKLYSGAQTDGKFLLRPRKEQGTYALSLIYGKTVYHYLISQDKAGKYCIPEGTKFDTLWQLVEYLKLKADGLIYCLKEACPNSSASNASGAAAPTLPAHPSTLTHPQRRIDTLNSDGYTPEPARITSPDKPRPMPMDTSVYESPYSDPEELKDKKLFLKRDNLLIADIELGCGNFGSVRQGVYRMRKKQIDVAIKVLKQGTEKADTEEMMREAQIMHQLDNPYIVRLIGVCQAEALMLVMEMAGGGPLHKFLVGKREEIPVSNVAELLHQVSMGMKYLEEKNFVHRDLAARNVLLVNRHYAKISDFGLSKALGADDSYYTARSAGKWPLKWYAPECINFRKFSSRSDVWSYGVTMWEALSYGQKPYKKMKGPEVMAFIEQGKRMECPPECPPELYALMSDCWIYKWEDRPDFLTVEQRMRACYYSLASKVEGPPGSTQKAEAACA
In a few lines:
as §1

In test [10] the target is T4, PBK (UniProt Q96KB5).
T4 sequence (whole entry): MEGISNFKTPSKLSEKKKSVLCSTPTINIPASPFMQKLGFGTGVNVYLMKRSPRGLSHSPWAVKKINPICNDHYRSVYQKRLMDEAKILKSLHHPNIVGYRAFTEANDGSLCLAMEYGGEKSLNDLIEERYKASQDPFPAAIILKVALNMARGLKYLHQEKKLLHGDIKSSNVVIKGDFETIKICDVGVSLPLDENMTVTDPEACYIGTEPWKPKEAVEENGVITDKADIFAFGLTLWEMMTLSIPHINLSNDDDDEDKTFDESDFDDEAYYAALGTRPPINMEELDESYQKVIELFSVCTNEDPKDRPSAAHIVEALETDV
As to conditions: cell material: Jurkat cells. In a few lines:
as §1

The target in test [11] is TLK1 (UniProt Q9UKI8). In outline: as §1
Chain of TLK1 (Q9UKI8 whole entry): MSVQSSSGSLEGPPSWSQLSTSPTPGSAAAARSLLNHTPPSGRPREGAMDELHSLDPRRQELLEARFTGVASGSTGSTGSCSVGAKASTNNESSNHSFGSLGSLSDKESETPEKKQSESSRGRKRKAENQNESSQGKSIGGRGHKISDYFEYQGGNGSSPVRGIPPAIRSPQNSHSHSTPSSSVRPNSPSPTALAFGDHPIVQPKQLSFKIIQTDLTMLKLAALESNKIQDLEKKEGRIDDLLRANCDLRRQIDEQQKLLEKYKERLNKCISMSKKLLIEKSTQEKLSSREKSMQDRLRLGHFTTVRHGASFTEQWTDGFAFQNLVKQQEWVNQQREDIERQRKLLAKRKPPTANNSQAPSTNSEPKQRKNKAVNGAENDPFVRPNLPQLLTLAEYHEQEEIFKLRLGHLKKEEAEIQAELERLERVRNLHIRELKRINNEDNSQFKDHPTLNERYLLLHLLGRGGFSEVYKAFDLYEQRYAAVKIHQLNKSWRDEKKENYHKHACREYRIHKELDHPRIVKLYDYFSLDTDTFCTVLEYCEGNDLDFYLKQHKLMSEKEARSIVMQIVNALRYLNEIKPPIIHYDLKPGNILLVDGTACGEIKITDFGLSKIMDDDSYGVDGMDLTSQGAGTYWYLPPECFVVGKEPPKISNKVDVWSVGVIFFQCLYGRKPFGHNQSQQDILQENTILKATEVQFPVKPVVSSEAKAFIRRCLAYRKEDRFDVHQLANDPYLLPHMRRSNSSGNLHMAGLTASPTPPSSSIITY

Chain of RIPK3 (Q9Y572 whole entry, looked up): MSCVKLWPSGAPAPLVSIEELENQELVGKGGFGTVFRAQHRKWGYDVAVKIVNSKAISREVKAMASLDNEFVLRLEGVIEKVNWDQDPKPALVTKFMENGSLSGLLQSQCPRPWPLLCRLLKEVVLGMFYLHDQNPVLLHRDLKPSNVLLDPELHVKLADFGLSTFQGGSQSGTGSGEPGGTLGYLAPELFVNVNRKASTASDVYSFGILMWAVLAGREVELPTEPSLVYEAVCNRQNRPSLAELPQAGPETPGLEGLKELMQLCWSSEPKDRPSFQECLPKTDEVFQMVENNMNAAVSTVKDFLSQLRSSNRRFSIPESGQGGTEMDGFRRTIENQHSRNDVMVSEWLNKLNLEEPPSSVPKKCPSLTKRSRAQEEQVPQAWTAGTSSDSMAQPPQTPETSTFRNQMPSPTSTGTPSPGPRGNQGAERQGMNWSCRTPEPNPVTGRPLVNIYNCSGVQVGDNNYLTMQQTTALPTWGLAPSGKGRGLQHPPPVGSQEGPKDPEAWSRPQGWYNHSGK
Chain of SRPK2 (P78362 whole entry, looked up): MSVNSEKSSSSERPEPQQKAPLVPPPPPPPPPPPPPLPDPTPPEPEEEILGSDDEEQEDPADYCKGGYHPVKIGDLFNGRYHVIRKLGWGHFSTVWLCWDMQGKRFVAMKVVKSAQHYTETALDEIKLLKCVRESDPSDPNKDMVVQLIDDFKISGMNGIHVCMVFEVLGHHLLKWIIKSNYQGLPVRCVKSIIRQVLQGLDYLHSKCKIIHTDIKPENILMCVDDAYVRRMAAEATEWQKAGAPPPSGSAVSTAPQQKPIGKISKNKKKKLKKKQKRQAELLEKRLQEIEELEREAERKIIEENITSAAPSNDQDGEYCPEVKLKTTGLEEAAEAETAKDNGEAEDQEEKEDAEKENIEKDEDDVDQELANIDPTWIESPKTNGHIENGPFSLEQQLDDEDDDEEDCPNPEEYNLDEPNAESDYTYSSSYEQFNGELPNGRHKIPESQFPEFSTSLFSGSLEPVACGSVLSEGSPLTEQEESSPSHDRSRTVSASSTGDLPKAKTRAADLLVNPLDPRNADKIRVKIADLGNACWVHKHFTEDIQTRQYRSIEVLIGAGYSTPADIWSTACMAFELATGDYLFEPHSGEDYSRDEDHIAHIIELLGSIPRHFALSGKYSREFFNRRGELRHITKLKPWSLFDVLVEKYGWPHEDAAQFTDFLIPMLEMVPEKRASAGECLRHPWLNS
Chain of AKT1 (P31749 whole entry): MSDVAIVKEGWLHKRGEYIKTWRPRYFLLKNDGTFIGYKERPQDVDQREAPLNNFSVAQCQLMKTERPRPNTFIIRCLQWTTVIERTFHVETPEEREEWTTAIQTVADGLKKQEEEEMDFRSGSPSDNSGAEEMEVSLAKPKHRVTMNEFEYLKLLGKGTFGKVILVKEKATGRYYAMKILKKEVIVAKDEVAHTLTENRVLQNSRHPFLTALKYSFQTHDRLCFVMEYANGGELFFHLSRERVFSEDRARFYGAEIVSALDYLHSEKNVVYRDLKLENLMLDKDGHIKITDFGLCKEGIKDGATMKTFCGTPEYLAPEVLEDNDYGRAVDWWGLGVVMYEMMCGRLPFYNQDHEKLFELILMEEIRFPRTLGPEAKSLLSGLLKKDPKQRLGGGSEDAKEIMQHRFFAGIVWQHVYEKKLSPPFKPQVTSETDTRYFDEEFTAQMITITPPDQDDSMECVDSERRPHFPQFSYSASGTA
Chain of UniProt Q9H093 (Q9H093 whole entry): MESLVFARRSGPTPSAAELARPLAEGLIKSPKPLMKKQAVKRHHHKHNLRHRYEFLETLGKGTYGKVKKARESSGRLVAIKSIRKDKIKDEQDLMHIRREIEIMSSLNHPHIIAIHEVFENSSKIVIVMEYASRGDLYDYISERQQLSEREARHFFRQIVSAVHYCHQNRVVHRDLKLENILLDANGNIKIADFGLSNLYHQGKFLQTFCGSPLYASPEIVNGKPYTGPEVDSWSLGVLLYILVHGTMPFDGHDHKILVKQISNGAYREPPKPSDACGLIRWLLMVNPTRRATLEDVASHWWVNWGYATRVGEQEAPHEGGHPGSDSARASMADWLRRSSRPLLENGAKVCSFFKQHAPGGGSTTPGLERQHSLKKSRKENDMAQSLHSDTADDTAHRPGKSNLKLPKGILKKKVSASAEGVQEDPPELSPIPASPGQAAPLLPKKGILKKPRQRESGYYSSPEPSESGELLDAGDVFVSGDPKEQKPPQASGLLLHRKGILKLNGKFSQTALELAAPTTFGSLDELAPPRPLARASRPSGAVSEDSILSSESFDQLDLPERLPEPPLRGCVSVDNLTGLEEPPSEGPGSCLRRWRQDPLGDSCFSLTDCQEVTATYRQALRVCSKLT
Chain of MAST1 (Q9Y2H9 whole entry, looked up): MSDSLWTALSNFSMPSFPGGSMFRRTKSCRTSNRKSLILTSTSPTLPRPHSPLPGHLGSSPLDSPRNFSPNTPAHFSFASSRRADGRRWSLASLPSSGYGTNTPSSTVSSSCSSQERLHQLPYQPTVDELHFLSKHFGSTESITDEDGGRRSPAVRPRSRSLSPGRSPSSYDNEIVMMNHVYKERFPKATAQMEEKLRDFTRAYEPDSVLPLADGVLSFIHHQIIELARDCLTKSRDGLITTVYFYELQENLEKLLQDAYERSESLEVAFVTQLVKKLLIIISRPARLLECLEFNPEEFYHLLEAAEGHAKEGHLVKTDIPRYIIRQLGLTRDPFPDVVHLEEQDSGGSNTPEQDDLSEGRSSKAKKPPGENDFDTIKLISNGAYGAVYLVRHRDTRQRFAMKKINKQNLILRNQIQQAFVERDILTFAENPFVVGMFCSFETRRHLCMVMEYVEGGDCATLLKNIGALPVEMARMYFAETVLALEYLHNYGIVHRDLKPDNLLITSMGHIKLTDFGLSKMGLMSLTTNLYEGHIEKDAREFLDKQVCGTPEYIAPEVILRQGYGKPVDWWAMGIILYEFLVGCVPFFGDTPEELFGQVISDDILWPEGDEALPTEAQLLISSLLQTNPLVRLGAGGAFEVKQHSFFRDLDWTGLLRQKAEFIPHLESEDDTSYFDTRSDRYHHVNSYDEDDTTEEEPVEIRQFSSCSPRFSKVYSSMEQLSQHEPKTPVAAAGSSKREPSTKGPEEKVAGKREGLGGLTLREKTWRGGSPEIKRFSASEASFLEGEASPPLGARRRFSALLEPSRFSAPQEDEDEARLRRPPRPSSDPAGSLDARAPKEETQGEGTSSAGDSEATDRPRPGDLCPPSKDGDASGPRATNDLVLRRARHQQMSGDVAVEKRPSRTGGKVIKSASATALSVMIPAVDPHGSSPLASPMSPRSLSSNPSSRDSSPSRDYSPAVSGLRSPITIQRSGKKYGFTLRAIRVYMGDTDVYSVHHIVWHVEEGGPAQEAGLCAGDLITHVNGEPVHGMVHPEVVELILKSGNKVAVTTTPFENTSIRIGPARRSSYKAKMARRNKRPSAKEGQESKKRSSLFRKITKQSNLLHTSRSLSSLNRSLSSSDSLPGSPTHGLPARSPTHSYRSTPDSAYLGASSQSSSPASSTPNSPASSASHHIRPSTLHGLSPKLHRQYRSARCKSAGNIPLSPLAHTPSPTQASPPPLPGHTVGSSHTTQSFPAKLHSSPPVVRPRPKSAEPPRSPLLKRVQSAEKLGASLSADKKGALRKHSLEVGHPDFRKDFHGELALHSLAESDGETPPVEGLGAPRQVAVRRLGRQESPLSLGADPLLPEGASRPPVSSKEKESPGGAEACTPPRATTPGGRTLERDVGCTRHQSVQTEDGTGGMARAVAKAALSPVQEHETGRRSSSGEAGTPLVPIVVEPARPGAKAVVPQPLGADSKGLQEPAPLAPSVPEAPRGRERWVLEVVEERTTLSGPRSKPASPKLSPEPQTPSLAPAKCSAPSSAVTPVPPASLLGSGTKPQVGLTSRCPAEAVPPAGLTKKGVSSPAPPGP

Usually pIC50 stands for the IC50 on a negative log10 scale, so that one unit is a factor of ten. Higher therefore signals a small IC50. `O=C(NCCNC(=O)c1cc(Nc2cc(C3CC3)[nH]n2)nc(N2CCN(Cc3ccc(S(=O)(=O)F)cc3)CC2)n1)OC1CC/C=C/CCC1` (centres undefined): the pIC50 in test [1] was < 4.52; in [2], 4.57; in test [3], < 4.52; in test [4] (cell material: Jurkat cells), < 4.52; in test [4] (cell material: Jurkat lysate) it was < 4.52; in test [5] (cell material: Jurkat lysate), < 4.52. Besides, the pIC50 was < 4.52 in test [6]; < 4.52 in test [7] (cell material: Jurkat cells); < 4.52 in [7] (cell material: Jurkat lysate); < 4.52 in test [8] (cell material: Jurkat cells); < 4.52 in [8] (cell material: Jurkat lysate); 6.09 in test [9] (cell material: Jurkat cells). Further, the negative-log IC50 (pIC50) in test [9] (cell material: Jurkat lysate) and in test [10] was < 4.52 in each case.
Regarding `Cc1cc(Nc2cc(C(=O)NCCNC(=O)OC3CC/C=C/CCC3)nc(N3CCN(Cc4ccc(S(=O)(=O)F)cc4)CC3)n2)n[nH]1` (centres undefined), the pIC50 in test [1] was < 4.52.
On to `CCNC(=O)c1cc(Nc2cc(C)[nH]n2)nc(N2CCN(Cc3ccc(S(=O)(=O)F)cc3)CC2)n1`, for which the pIC50 in [11] (cell material: Lysate mix) was determined as 4.92.
For the compound `C#CCNC(=O)c1cc(Nc2cc(C3CC3)[nH]n2)nc(N2CCN(Cc3ccc(S(=O)(=O)F)cc3)CC2)n1`, the pIC50 in test [2] was 5.92; in test [3], < 4.52; in [4] (cell material: Jurkat cells) it was 5.09; in test [5] (cell material: Jurkat cells) it was 4.85; in [5] (cell material: Jurkat lysate), 4.67; in [6], < 4.52. For the same compound, the pIC50 in test [7] (cell material: Jurkat cells) was < 4.52; in [7] (cell material: Jurkat lysate), < 4.52; in test [11] (cell material: Jurkat cells), 4.82; in test [8] (cell material: Jurkat cells), 4.92; in [9] (cell material: Jurkat cells), 6.43; in test [9] (cell material: Jurkat lysate) it was < 4.52. For the same compound, in test [10], the pIC50 was < 4.52.
